In general, IC50 refers to the concentration that inhibits the measured activity by half.

Values after ≈ are worked out from the molar mass of the structure shown. Active and inactive are the calls of the source. No cut-off for these calls is given here.

Three compounds from ChEMBL document CHEMBL3352216, “Triterpene glycosides from red ginseng marc and their anti-inflammatory activities” (Bioorg Med Chem Lett, 2014) can be followed below.

A short description of data set [1]: Cytotoxicity against LPS-stimulated mouse RAW264.7 cells assessed as cell viability at 120 uM after 24 hrs by MTT assay (reference value: 100%). It is filed as cell-based. Particulars: LPS-stimulated RAW264.7 cells, read-out: Activity. (In general: Formazan colour is commonly taken as a measure of viable cells.)
Data set [2] relates to RAW264.7. Nature of the data set: Antiinflammatory activity in LPS-stimulated mouse RAW264.7 cells assessed as reduction in nitric oxide production at 80 uM after 24 hrs by Griess method based ELISA (reference value: 52.4 +/- 0.9 uM). It is filed as functional.
The subject of data set [3] is RAW264.7. The experiment in a line: Antiinflammatory activity in LPS-stimulated mouse RAW264.7 cells assessed as reduction in nitric oxide production at 40 uM after 24 hrs by Griess method based ELISA (reference value: 52.4 +/- 0.9 uM). In kind it is functional. Background: Nitrite, measured by Griess reagent, commonly stands in for NO production.
Data set [4] concerns RAW264.7. Nature of the data set: Antiinflammatory activity in LPS-stimulated mouse RAW264.7 cells assessed as reduction in nitric oxide production at 120 uM after 24 hrs by Griess method based ELISA (reference value: 52.4 +/- 0.9 uM). In kind it is functional.
Data set [5] is described as follows: Cytotoxicity against LPS-stimulated mouse RAW264.7 cells assessed as cell viability at 80 uM after 24 hrs by MTT assay (reference value: 100%). In kind it is cell-based. Particulars: LPS-stimulated RAW264.7 cells, read-out: Activity.
Data set [6] in a line: Cytotoxicity against LPS-stimulated mouse RAW264.7 cells assessed as cell viability at 40 uM after 24 hrs by MTT assay (reference value: 100%). It is filed as cell-based. To be noted: LPS-stimulated RAW264.7 cells, read-out: Activity.
Data set [7] concerns RAW264.7. Nature of the data set: Antiinflammatory activity in LPS-stimulated mouse RAW264.7 cells assessed as reduction in nitric oxide production after 24 hrs by Griess method based ELISA. It is filed as functional, cell-based. To be noted: RAW264.7, 24 h.
In data set [8] the test system is RAW264.7. The experiment in a line: Antiinflammatory activity in LPS-stimulated mouse RAW264.7 cells assessed as reduction in COX2 expression at 10 uM co-incubated with LPS for 24 hrs by RT-PCR method relative to untreated control. In kind it is functional.
The subject of data set [9] is RAW264.7. Nature of the data set: Antiinflammatory activity in LPS-stimulated mouse RAW264.7 cells assessed as reduction in iNOS expression at 10 uM co-incubated with LPS for 24 hrs by RT-PCR method relative to untreated control. It is filed as functional.
The test system of data set [10] is RAW264.7. The experiment in a line: Antiinflammatory activity in LPS-stimulated mouse RAW264.7 cells assessed as reduction in TNFalpha expression at 20 uM co-incubated with LPS for 24 hrs by RT-PCR method relative to untreated control. It is filed as functional.
Data set [11] deals with RAW264.7. The experiment in a line: Antiinflammatory activity in LPS-stimulated mouse RAW264.7 cells assessed as reduction in COX2 expression at 30 uM co-incubated with LPS for 24 hrs by RT-PCR method relative to untreated control. In kind it is functional.
Data set [12] has as its system RAW264.7. The experiment in a line: Induction of iNOS mRNA expression in LPS-non-stimulated mouse RAW264.7 cells by RT-PCR method. It is filed as cell-based.
Data set [13] relates to RAW264.7. Nature of the data set: Antiinflammatory activity in LPS-stimulated mouse RAW264.7 cells assessed as reduction in nitric oxide production at 10 uM after 24 hrs by Griess method based ELISA (reference value: 52.4 +/- 0.9 uM). In kind it is functional.
Data set [14] relates to RAW264.7. Nature of the data set: Antiinflammatory activity in LPS-stimulated mouse RAW264.7 cells assessed as reduction in nitric oxide production at 20 uM after 24 hrs by Griess method based ELISA (reference value: 52.4 +/- 0.9 uM). It is filed as functional.
Data set [15] has as its system RAW264.7. The experiment in a line: Antiinflammatory activity in LPS-stimulated mouse RAW264.7 cells assessed as reduction in iNOS expression at 20 uM co-incubated with LPS for 24 hrs by RT-PCR method relative to untreated control. It is filed as functional.
Data set [16] concerns RAW264.7. The experiment in a line: Antiinflammatory activity in LPS-stimulated mouse RAW264.7 cells assessed as reduction in IL6 expression at 10 uM co-incubated with LPS for 24 hrs by RT-PCR method relative to untreated control. In kind it is functional.
Data set [17] deals with RAW264.7. The experiment in a line: Antiinflammatory activity in LPS-stimulated mouse RAW264.7 cells assessed as reduction in TNFalpha expression at 30 uM co-incubated with LPS for 24 hrs by RT-PCR method relative to untreated control. In kind it is functional.
Data set [18] has as its system RAW264.7. The experiment in a line: Antiinflammatory activity in LPS-stimulated mouse RAW264.7 cells assessed as reduction in TNFalpha expression at 10 uM co-incubated with LPS for 24 hrs by RT-PCR method relative to untreated control. It is filed as functional.
Data set [19] can be described thus: Cytotoxicity against LPS-stimulated mouse RAW264.7 cells assessed as cell viability at 20 uM after 24 hrs by MTT assay (reference value: 100%). Particulars: LPS-stimulated RAW264.7 cells, read-out: Activity. In kind it is cell-based.
Data set [20] has as its system RAW264.7. Nature of the data set: Antiinflammatory activity in LPS-stimulated mouse RAW264.7 cells assessed as reduction in IL-1beta expression at 10 uM co-incubated with LPS for 24 hrs by RT-PCR method relative to untreated control. It is filed as functional.
Data set [21] relates to RAW264.7. The experiment in a line: Antiinflammatory activity in LPS-stimulated mouse RAW264.7 cells assessed as reduction in COX2 expression at 20 uM co-incubated with LPS for 24 hrs by RT-PCR method relative to untreated control. In kind it is functional.
Data set [22] deals with RAW264.7. Nature of the data set: Antiinflammatory activity in LPS-stimulated mouse RAW264.7 cells assessed as reduction in iNOS expression at 30 uM co-incubated with LPS for 24 hrs by RT-PCR method relative to untreated control. In kind it is functional.
In data set [23] the test system is RAW264.7. The experiment in a line: Antiinflammatory activity in LPS-stimulated mouse RAW264.7 cells assessed as reduction in iNOS expression co-incubated with LPS for 24 hrs by RT-PCR method relative to untreated control. In kind it is functional, cell-based.
Data set [24] relates to RAW264.7. Nature of the data set: Antiinflammatory activity in LPS-stimulated mouse RAW264.7 cells assessed as reduction in IL6 expression at 20 uM co-incubated with LPS for 24 hrs by RT-PCR method relative to untreated control. In kind it is functional.
The subject of data set [25] is RAW264.7. Nature of the data set: Antiinflammatory activity in LPS-stimulated mouse RAW264.7 cells assessed as reduction in IL-1beta expression at 20 uM co-incubated with LPS for 24 hrs by RT-PCR method relative to untreated control. In kind it is functional.
In data set [26] the test system is RAW264.7. The experiment in a line: Antiinflammatory activity in LPS-stimulated mouse RAW264.7 cells assessed as reduction in TNFalpha level at 10 to 40 uM co-incubated with LPS for 24 hrs by ELISA method. In kind it is functional, cell-based. A general note: In an ELISA, binding on a coated surface is turned into a signal by an enzyme label.
Data set [27] relates to RAW264.7. The experiment in a line: Antiinflammatory activity in LPS-stimulated mouse RAW264.7 cells assessed as reduction in IL-1beta expression at 30 uM co-incubated with LPS for 24 hrs by RT-PCR method relative to untreated control. In kind it is functional.
A short description of data set [28]: Cytotoxicity against LPS-stimulated mouse RAW264.7 cells assessed as cell viability at 10 uM after 24 hrs by MTT assay (reference value: 100%). It is filed as cell-based. Particulars: LPS-stimulated RAW264.7 cells, read-out: Activity.
Data set [29] deals with RAW264.7. Nature of the data set: Antiinflammatory activity in LPS-stimulated mouse RAW264.7 cells assessed as reduction in IL6 expression at 30 uM co-incubated with LPS for 24 hrs by RT-PCR method relative to untreated control. In kind it is functional.
Data set [30] can be described thus: Cytotoxicity against LPS-stimulated mouse RAW264.7 cells assessed as cell viability at 1.5 uM after 24 hrs by MTT assay (reference value: 100%). It is filed as cell-based. Particulars: LPS-stimulated RAW264.7 cells, read-out: Activity.
Data set [31] relates to RAW264.7. The experiment in a line: Antiinflammatory activity in LPS-stimulated mouse RAW264.7 cells assessed as reduction in nitric oxide production at 3 uM after 24 hrs by Griess method based ELISA (reference value: 52.4 +/- 0.9 uM). It is filed as functional.
Data set [32] relates to RAW264.7. Nature of the data set: Antiinflammatory activity in LPS-stimulated mouse RAW264.7 cells assessed as reduction in nitric oxide production at 1.5 uM after 24 hrs by Griess method based ELISA (reference value: 52.4 +/- 0.9 uM). In kind it is functional.
Data set [33] in a line: Cytotoxicity against LPS-stimulated mouse RAW264.7 cells assessed as cell viability at 3 uM after 24 hrs by MTT assay (reference value: 100%). In kind it is cell-based. Particulars: LPS-stimulated RAW264.7 cells, read-out: Activity.

Regarding `C[C@@H]1C[C@@H](O)[C@]2(C)CC[C@]3(C)[C@H](CC[C@@H]4[C@@]5(C)CC[C@H](O[C@@H]6O[C@H](CO)[C@@H](O)[C@H](O)[C@H]6O[C@@H]6O[C@H](CO)[C@@H](O)[C@H](O)[C@H]6O)C(C)(C)[C@@H]5CC[C@]43C)[C@@H]2[C@]1(C)O`, in data set [1], the viability at 24 h, 120 µM turned out to be 73.9%. The values for the Activity in the data set on RAW264.7 [2], in the data set on RAW264.7 [3] and in the data set with RAW264.7 [4] were 40.4 µM, 54.5 µM and 30.8 µM, respectively. In addition, the viability at 24 h, 80 µM in data set [5] worked out at 91.7%. Moreover, the viability at 24 h, 40 µM in data set [6] is 90.3%. In addition, in the data set on RAW264.7 [7], the IC50 came to 127 µg/mL (≈ 161 µM).

Take `C[C@@H]1[C@H]2[C@H]3C[C@H](O)[C@@H]4[C@@]5(C)CC[C@H](O[C@H]6O[C@H](CO[C@H]7O[C@H](CO[C@H]8O[C@H](CO[C@H]9O[C@H](CO)[C@@H](O)[C@H](O)[C@H]9O)[C@@H](O)[C@H](O)[C@H]8O)[C@@H](O)[C@H](O)[C@H]7O)[C@@H](O)[C@H](O)[C@H]6O)C(C)(C)[C@@H]5CC[C@@]4(C)[C@]3(C)CC[C@@]2(C)CC[C@H]1C`: the “fold change (FC)” value in the data set on RAW264.7 [8] turned out to be 0.5; in the data set on RAW264.7 [9], 0.7; in the data set with RAW264.7 [10], 0.7; in the data set with RAW264.7 [11], 0.5; with RAW264.7 [15] it was 0.7; with RAW264.7 [16], 0.5. For the same compound, the “fold change (FC)” value in the data set with RAW264.7 [17] turned out to be 0.6; in the data set with RAW264.7 [18], 0.6; in the data set on RAW264.7 [20], 0.7; with RAW264.7 [21] it was 0.6; in the data set on RAW264.7 [22] it was 0.4; in the data set on RAW264.7 [24] it was 0.6. The “fold change (FC)” value is listed as 0.7 in the data set on RAW264.7 [25], 0.6 in the data set on RAW264.7 [27] and 0.7 in the data set on RAW264.7 [29]. The Activity entry is “Non-toxic” in the data set with RAW264.7 [12], 46.4 µM in the data set with RAW264.7 [13], 39.8 µM with RAW264.7 [14] and 7.1 µM in the data set with RAW264.7 [3]. Moreover, the viability at 24 h, 20 µM in data set [19] is 126%. For the same compound, the inhibition result in the data set with RAW264.7 [23] is “Dose-dependent effect”. The viability at 24 h, 40 µM in data set [6] turned out to be 98.7%. Moreover, the IC50 in the data set on RAW264.7 [7] was 25.9 µg/mL (≈ 23.7 µM). For the same compound, the inhibition entry with RAW264.7 [26] was “Active”. Further, the viability at 24 h, 10 µM in [28] was determined as 111%.

Consider `O=c1c(O)c(-c2ccc(O)c(O)c2)oc2cc(O)cc(O)c12` [QUERCETIN], for which the viability at 24 h, 1.5 µM in data set [30] was 104%. In addition, the Activity in the data set on RAW264.7 [31] came out at 13.5 µM; with RAW264.7 [32], 20.8 µM. Moreover, the viability at 24 h, 3 µM in data set [33] was 104%. Also, in the data set with RAW264.7 [7], the IC50 came out at 2.9 µg/mL (≈ 9.6 µM).
